Measured values published in PMC7894522, “Structure Based Design of Bicyclic Peptide Inhibitors of RbAp48” (Angewandte Chemie (International Ed. in English), 2020).
Values belong to the compound of their own block, whether it stands above or below them. Starred links: 1 amine or outer side, 2 acyl side, 3 side chain; linkers in the order of their positions; H or OH if unused. Positions of bridges follow the written chain, without caps; N, C: chain ends. Residues, ends and D or L forms follow the SMILES beside them. TBMB = c1c(C[*:1])cc(C[*:3])cc1C[*:2]; pXylylene = c1cc(C[*:2])ccc1C[*:1]

Key:
U2OS cells = assay: Morphological cell painting assay; type: cell-based; details: Supplemental table 6; cell painting profile similarity to compound 49, U2OS cells
Text: Encouraged by the promising results from the pulldown experiment, and in order to get insight into bioactivity and possible mode of action, we analyzed peptide 33 in a morphological cell painting assay. The cell painting assay is a target agnostic assay which determines a cells morphological profile after treatment with a compound of interest and compares it to the profiles of a set of reference compounds. ^[22] By identifying reference compounds with a similar profile a hypothesis of the compounds mode of action can be generated based on their annotated targets. ^[23] U2OS cells were treated with our compound and 579 parameters were analyzed. […] We therefore synthesized a variant modified with an N‐terminal TAT sequence to enhance its permeability (compound 49, see Table 1 and Supplemental Figure 4). ^[24] […] Applying compound 49 to the cell painting assay led to an induction of 5.9 % and the corresponding profile was compared to the set of 3000 reference compounds. […] To validate this hypothesis, we exposed U2OS cells to compound 49 and evaluated the levels of p53 by Western blot. […] The exact mechanism by which the compounds elevate levels of p53 requires further investigation. However, it has previously been shown that the NuRD complex, of which RbAp48 is a core component, is able to deacetylate p53 and thereby modulate its stability. ^[26] The effect is mediated by the MTA family of proteins from which the compounds described here are derived. […]
The described assay follows closely the method described by Bray et al. Initially, 5 µl U2OS medium were added to each well of a 384 -well plate (PerkinElmer CellCarrier -384 Ultra). Subsequently, U2OS cell were seeded with a density of 1600 cells per well in 20 µl medium. The plate was incubated for 10 min at the ambient temperatu re, followed by an a dditional 4 h incubation (37 °C, 5 % CO2). Compound treatment was performed with the Echo 520 acoustic dispenser (Labcyte) at final concentrations of 10 µM, 3 µM or 1 µM. Incubation with compound was performed for 20 h (37 °C, 5 % CO2). Subsequently, mitoc hondria were stained with Mito Tracker Deep Red (Thermo Fisher Scientific, Cat. No. M22426). The Mito Tracker Deep Red stock solution (1 mM) was diluted to a final concentration of 100 nM in prewarmed medium. The medium was removed fr om the plate leaving 1 0 µl residual volume and 25 µl of the Mito Tracker solution were added to each well. 22 The plate was incubated for 30 min in darkness (37 °C, 5 % CO2). To fix the cells 7 µl of 18.5 % formaldehyde in PBS were added, resulting in a fi nal formaldehyde conce ntration of 3.7 %. Subsequently, the plate was incubated for another 20 min in darkness (RT) and washed three times with 70 µl of PBS. (Biotek Washer Elx405). Cells were permeabilized by addition of 25 µl 0.1 % Triton X -100 to each well, followed by 15 min incubation (RT) in darkness. The cells were washed three times with PBS leaving a final volume of 10 µl. To each well 25 µl of a staining solution were added, which contains 1 % BSA, 5 µl/mL Phalloidin (Thermo Fisher Scientific, A123 81), 25 µg/ml Concanav alin A (Thermo Fisher Scientific, Cat. […]
conjugate (Thermo Fisher Scientific, Cat. No. W11262) and […] SYTO 14 solution (Thermo Fisher Scientific, Cat. No. S7576). The plate is incubated for 30 min (RT) in darkness and washed three times with 70 µl PBS. After the final washing step the PBS was not aspirated. The plates were sealed and centrifuged for 1 min at 500 rpm.
The plates were prepare d in triplicates with shifted layouts to reduce plate effects and imaged using a Micro XL High-Content Screening System (Molecular Devices) in 5 channels (DAPI: Ex350 -400/ Em410- […]
The generated images were processed with the CellProfiler package (https://cellprofiler.org/, version 3.0.0) on a computing cluster of the Max Planck Society to extract 1716 cell features (parameters) per microscope site. The data was then further aggregated as medians per well (9 sites -> 1 well), then […]

[1] = Peptide stability in MDA-MB-231 whole cell lysate; type: in vitro ADME; details: human, 37°C, HPLC, duplicate; for half-life at 600 µM: MDA-MB-231 whole cell lysate (freeze-thaw), 5 mg/ml protein in PBS, peptide 600 µM, read-out: t 1/2 (half-life); for remaining at 5 min, 600 µM: T 5 min; for remaining at 5 min, 600 µM / remaining at 0.25 h, 600 µM / remaining at 1 h, 600 µM: MDA-MB-231 whole cell lysate 5 mg/ml protein, read-out: % left; for remaining at 0.25 h, 600 µM: T 15 min; for remaining at 1 h, 600 µM: T 60 min
Description: To investigate whether the cyclization strategy influences the stability of the peptides we incubated 3, 8 and 33 in MDA‐MB‐231 cell lysate. […]
(§1) Fluorescence polarization assay […]
Isothermal Titration Calorimetry […]
Peptide stability was tested in whole cell lysate prepared from MDA-MB-231 cells using the freeze-thaw method. Peptides were dissolved in lysate (normalized to 5mg/ml protein using PBS) at 600 µM and incubated at 37°C. Samples were taken at different time points and mixed with an equal amount of MeOH containing 0.05 mg/ml ethylparaben as an i nternal standard. The samples were mixed and kept on ice for 15 minutes before centrifugation at 14000 rpm at 4 °C for 10 min. The supernatant was carefully removed and analyzed by HPLC. Peptide peaks were integrated and surface areas compared […]
Measurements were performed in duplicate.

RbAp48 [2] = target: T1, RbAp48 (Homo sapiens, UniProt Q09028); assay: Competitive fluorescence polarization (FP) assay using complex of peptide 1 and RbAp48; type: binding; design: Full length RbAp48 was cloned; His tag followed by 3C cleavage site (N, cleaved yes); made in house; host or cells: Sf9 insect cells; details: for IC50: Table 1, competitive FP, tracer peptide 1 1 nM, RbAp48 15 nM, 20 mM Tris-HCl, 150 mM NaCl, 0.01% Tween-20, pH 7.5, 30 min room temperature, lower limit set by 15 nM protein, read-out: IC50
T1 sequence (Q09028 whole entry): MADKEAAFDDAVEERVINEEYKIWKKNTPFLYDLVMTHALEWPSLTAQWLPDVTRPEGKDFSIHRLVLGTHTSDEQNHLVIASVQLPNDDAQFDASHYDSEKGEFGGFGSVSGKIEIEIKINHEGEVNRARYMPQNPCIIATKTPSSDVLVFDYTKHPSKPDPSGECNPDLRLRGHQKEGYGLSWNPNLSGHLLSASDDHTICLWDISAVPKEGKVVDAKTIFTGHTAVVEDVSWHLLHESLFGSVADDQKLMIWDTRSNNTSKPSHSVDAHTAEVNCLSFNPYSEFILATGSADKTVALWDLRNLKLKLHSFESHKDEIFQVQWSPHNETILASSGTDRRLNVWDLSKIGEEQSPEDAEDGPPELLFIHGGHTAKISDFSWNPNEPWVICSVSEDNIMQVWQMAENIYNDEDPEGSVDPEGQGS
Summary of the method: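 Sf9-expressed full-length RbAp48 (tag cleaved), 15 nM, displaced from 1 nM fluorescent peptide tracer in 20 mM Tris-HCl pH 7.5, 150 mM NaCl, 0.01% Tween-20. Read by FP (ex 485/em 535 nm) after 30 min at room temperature.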

RbAp48 [3] = target: T1, RbAp48; assay: Isothermal titration calorimetry (direct and competitive); type: binding; design: Full length RbAp48 was cloned; His tag followed by 3C cleavage site (N, cleaved yes); made in house; host or cells: Sf9 insect cells
Description: The weak ligand interferes with binding of the strong ligand allowing the use of higher concentrations and therefore stronger signal. The actual affinity and thermodynamic parameters can then be calculated from the measured values.[ ^20 , ^21 ] The long linear peptide 2, monocyclic peptide 8, and bicyclic peptide 33 were analysed using this method and the results are reported in Table 2 (See Figure 4 A and Supplemental Figure 13–16). […] An effect which could not clearly be observed by the FP assay as it's lower limits were reached.
Protein expression and purification
RbAp48 was expressed and purified by the Dortmund Protein Facility. Full length RbAp48 was cloned into a pOPIN vector ligating it to an N-terminal His tag followed by a 3C cleavage site. The protein was expressed from Sf9 cells for 48 h. Cells were harvested and lysed and the protein was purified by loading onto a HisTrap FF crude 5 ml column followed by on-column cleavage using Precission protease. The cleaved protein was then further purified using a HiLoad 26/60 Superdex 200 column.
as §1
Isothermal Titration Calorimetry
Isothermal titration calorimetry measurements w ere performed using a Microcal ITC-200 device. The buffer for all measurements consisted of 20 mM Tris, 150 mM NaCl, pH 7.5 and all measurements were performed at 25°C in duplicate except for 8. RbAp48 was dialyzed overnight using a 10 kDa MWCO Slide-A-lizer dialysis membrane and peptide samples were dissolved in the dialysis buffer. Direct measurements of 40 were perfomed by titrating the peptide ( 800 µM) into the cell containing RbAp48 (40 µM) using 2 µl injection after an initial injection of 0.5 µl. […]
by competitive ITC where the protein is premixed with a weak ligand ( 40).[1] Competitive measurements were performed by titrating 2, 8 or 33 (300 µM) into the cell containing RbAp48 (30 µM) and 40 (416 µM). Other conditions were the same as for the direct measurement described above.
Ki was calculated according using the following formula: […]

[4] = competitive ITC with weak ligand 40

Compound: COc1cc2nc(N3CCCN(C)CC3)nc(NC3CCN(Cc4ccccc4)CC3)c2cc1OC [BIX01294]
Biosimilarity (%) (U2OS cells): 64.9%

half-life at 600 µM [1]: 11.9 min
remaining at 5 min, 600 µM [1]: 67.8%
remaining at 0.25 h, 600 µM [1]: 41%
remaining at 1 h, 600 µM [1]: 0%
IC50 (RbAp48 [2]): 15.1 ± 5.4 nM
K D (RbAp48 [3]; [4]): did not yield a binding curve
K D [nM] (RbAp48 [3]; competitive ITC: 300 μM peptide titrated into 30 μM RbAp48 and 416 μM peptide 40, 20 mM Tris, 150 mM NaCl, pH 7.5, 25°C, duplicate except 8): N.B.
Compound: CC(=O)N[C@H]1CSCc2ccc(cc2)CSC[C@@H](C(=O)N[C@@H](C)C(N)=O)NC(=O)[C@@H]2CCCN2C(=O)[C@H](CCCCN)NC(=O)[C@H](Cc2ccc(O)cc2)NC(=O)[C@@H]2CCCN2C(=O)[C@H](CCCNC(=N)N)NC(=O)[C@H](CCCNC(=N)N)NC(=O)[C@H](C)NC(=O)[C@H](C)NC(=O)[C@H](CCCNC(=N)N)NC(=O)[C@H](CCCCN)NC(=O)[C@H]([C@@H](C)O)NC1=O [Peptide 8] (Ac-CTKRAARRPYKPCA-NH2; linker 1-13 via pXylylene)

Compound: CC(=O)N1CCN(c2ccc(OCC3COC(Cn4ccnc4)(c4ccc(Cl)cc4Cl)O3)cc2)CC1 (centres unmarked) [Ketoconazole]
Biosimilarity (%) (U2OS cells): 61.9%

IC50 (RbAp48 [2]): 4320 ± 974 nM
FP activity in words (RbAp48 [2]; competitive FP assay): decreased several orders of magnitude
Kd (RbAp48 [3]; weak binding ligand, direct ITC): 15800 nM
Compound: CC(=O)N[C@H]1CSCc2cc3cc(c2)CSC[C@@H](C(=O)N[C@@H](C)C(N)=O)NC(=O)[C@@H]2CCCN2C(=O)[C@H](CCCCN)NC(=O)[C@H](Cc2ccc(O)cc2)NC(=O)[C@@H]2CCCN2C(=O)[C@H](CCCNC(=N)N)NC(=O)[C@H](C)NC(=O)[C@H](C)NC(=O)[C@H](CSC3)NC(=O)[C@H](CCCNC(=N)N)NC(=O)[C@H](CCCCN)NC(=O)[C@H]([C@@H](C)O)NC1=O [Peptide 40] (Ac-CTKRCAARPYKPCA-NH2; linker 1-5-13 via TBMB)

IC50 (RbAp48 [2]): 13.4 ± 3 nM
Kd (RbAp48 [3]; [4]): 5.18 nM
Compound: CC[C@H](C)[C@H](NC(=O)[C@@H]1CCCN1C(=O)[C@H](CCCCN)NC(=O)[C@H](Cc1ccc(O)cc1)NC(=O)[C@@H]1CCCN1C(=O)[C@H](CCCNC(=N)N)NC(=O)[C@H](CCCNC(=N)N)NC(=O)[C@H](C)NC(=O)[C@H](C)NC(=O)[C@H](CCCNC(=N)N)NC(=O)[C@H](CCCCN)NC(=O)[C@@H](NC(=O)[C@H](CCC(=O)O)NC(=O)[C@H](CO)NC(=O)[C@H](CO)NC(=O)[C@H](CO)NC(=O)[C@H](CC(C)C)NC(=O)[C@H](CC(C)C)NC(=O)[C@H](CCCCN)NC(C)=O)[C@@H](C)O)C(=O)N[C@@H](C)C(=O)N[C@@H](CC(C)C)C(=O)N[C@@H](CCCNC(=N)N)C(=O)N[C@@H](CCC(N)=O)C(=O)N[C@@H](CO)C(=O)N[C@@H](CCC(N)=O)C(=O)N[C@@H](C)C(N)=O [Peptide 2] (Ac-KLLSSSETKRAARRPYKPIALRQSQA-NH2)

Compound: CCN(CC)CCNC(=O)c1c(C)[nH]c(/C=C2\C(=O)Nc3ccc(F)cc32)c1C [Sunitinib]
Biosimilarity (%) (U2OS cells): 63.5%

Compound: CC(C)(C)C[C@@H]1N[C@@H](C(=O)N[C@H]2CC[C@H](O)CC2)[C@H](c2cccc(Cl)c2F)[C@]12C(=O)Nc1cc(Cl)ccc12 [MI-773]
Biosimilarity (%) (U2OS cells): 73.0%

half-life at 600 µM [1]: 16 min
remaining at 5 min, 600 µM [1]: 67.5%
remaining at 0.25 h, 600 µM [1]: 49.2%
remaining at 1 h, 600 µM [1]: 0%
IC50 (RbAp48 [2]): 2620 ± 786 nM
Compound: CC[C@H](C)[C@H](NC(=O)[C@@H]1CCCN1C(=O)[C@H](CCCCN)NC(=O)[C@H](Cc1ccc(O)cc1)NC(=O)[C@@H]1CCCN1C(=O)[C@H](CCCNC(=N)N)NC(=O)[C@H](CCCNC(=N)N)NC(=O)[C@H](C)NC(=O)[C@H](C)NC(=O)[C@H](CCCNC(=N)N)NC(=O)[C@H](CCCCN)NC(=O)[C@@H](NC(=O)[C@H](CCC(=O)O)NC(C)=O)[C@@H](C)O)C(=O)N[C@@H](C)C(N)=O [Peptide 3] (Ac-ETKRAARRPYKPIA-NH2)

Compound: NS(=O)(=O)OC[C@@H]1C[C@@H](n2ccc3c(N[C@H]4CCc5ccccc54)ncnc32)C[C@@H]1O [Pevonedistat]
Biosimilarity (%) (U2OS cells): 63.6%

Compound: PFI-5
Biosimilarity (%) (U2OS cells): 65.1%
